Patent US12331035B2, “Bicyclic compound and use thereof” (SK BIOPHARMACEUTICALS CO., LTD., priority 2019, dated 2025)
Counter-ions that a name gives are not always drawn.

Each compound was assayed against T1, PRMT5-MEP50 enzyme complex (Homo sapiens, UniProt O14744) (assay: In vitro PRMT5 enzyme activity assay (methylation of histone H4 arginine H4R3, ELISA absorbance at 450 nm)). Details: S-adenosylmethionine, histone H4 peptide, 2 hours at room temperature, 8 points 10 μM to 0.128 nM.
T1 construct: purchased BPS Bioscience (USA) 51045
T1 sequence (O14744 2-637 limits assumed): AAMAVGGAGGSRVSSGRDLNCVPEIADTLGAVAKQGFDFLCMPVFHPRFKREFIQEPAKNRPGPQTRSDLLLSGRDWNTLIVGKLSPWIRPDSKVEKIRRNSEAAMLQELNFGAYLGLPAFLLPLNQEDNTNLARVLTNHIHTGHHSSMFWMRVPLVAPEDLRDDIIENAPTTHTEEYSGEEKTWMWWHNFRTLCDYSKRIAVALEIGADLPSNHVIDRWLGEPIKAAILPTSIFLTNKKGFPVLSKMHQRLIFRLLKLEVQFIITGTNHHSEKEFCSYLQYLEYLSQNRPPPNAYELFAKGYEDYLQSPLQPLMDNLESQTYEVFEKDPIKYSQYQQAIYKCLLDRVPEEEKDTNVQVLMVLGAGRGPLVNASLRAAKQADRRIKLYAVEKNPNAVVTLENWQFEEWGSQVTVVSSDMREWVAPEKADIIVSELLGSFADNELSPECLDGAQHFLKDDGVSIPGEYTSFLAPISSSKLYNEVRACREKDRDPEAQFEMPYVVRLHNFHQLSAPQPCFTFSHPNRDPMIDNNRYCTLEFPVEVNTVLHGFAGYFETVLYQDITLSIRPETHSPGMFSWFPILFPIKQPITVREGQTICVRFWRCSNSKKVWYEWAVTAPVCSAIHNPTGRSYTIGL
T1 sequence (Q9BQA1 2-342 partner limits assumed): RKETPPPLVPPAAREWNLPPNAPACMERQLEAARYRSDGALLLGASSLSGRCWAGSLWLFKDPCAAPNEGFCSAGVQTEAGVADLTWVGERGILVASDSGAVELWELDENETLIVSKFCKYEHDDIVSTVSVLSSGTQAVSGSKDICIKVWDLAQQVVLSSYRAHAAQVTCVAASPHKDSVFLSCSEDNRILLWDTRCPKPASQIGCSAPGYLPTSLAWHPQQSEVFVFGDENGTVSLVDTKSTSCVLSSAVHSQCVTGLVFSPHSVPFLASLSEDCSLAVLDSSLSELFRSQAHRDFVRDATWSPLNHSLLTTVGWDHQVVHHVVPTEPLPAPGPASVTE
Format: biochemical
How it was run: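 Human PRMT5-MEP50 (5 μg/mL working stock) with 2 μM SAM stock on histone H4 (1-20) peptide-coated plates, compound 8-point 1:5 series from 10 μM, 2 h at room temperature. H4R3 methylation detected by antibody/HRP ELISA, absorbance 450 nm; IC50 calculated.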

SMILES	IC50 [nM]
O=C1c2ccc(N3CCN(C4CCOCC4)CC3)cc2CCN1C[C@H](O)CN1CCc2ccccc2C1 [Example 122, 2-[(2R)-3-(3,4-dihydro-1H-isoquinolin-2-yl)-2-hydroxy-propyl]-6-(4-tetrahydropyran-4-ylpiperazin-1-yl)-3,4-dihydroisoquinolin-1-one]	100 to 1000
CCN(CC)C1CCN(c2ccc3c(c2)C(C)(C)CN(C[C@H](O)CN2CCc4ccccc4C2)C3=O)CC1 [Example 123, 6-[4-(diethylamino)-1-piperidyl]-2-[(2R)-3-(3,4-dihydro-1H-isoquinolin-2-yl)-2-hydroxy-propyl]-4,4-dimethyl-3H-isoquinolin-1-one]	100 to 1000
CC1(C)CN(C[C@H](O)CN2CCc3ccccc3C2)C(=O)c2ccc(N3CCC(N4CCCC4)CC3)cc21 [Example 124, 2-[(2R)-3-(3,4-dihydro-1H-isoquinolin-2-yl)-2-hydroxy-propyl]-4,4-dimethyl-6-(4-pyrrolidin-1-yl-1-piperidyl)-3H-isoquinolin-1-one]	1 to 100
CC1(C)CN(C[C@H](O)CN2CCc3ccccc3C2)C(=O)c2ccc(N3CCN(C=O)CC3)cc21 [Example 125, 4-[2-[(2R)-3-(3,4-dihydro-1H-isoquinolin-2-yl)-2-hydroxy-propyl]-4,4-dimethyl-1-oxo-3H-isoquinolin-6-yl]piperazine-1-carbaldehyde]	100 to 1000
CN(C)C1CCN(c2ccc3c(c2)C(C)(C)CN(C[C@H](O)CN2CCc4ccccc4C2)C3=O)CC1 [Example 126, 2-[(2R)-3-(3,4-dihydro-1H-isoquinolin-2-yl)-2-hydroxy-propyl]-6-[4-(dimethylamino)-1-piperidyl]-4,4-dimethyl-3H-isoquinolin-1-one; dihydrochloride]	1 to 100
O=C1c2ccc(N3CCN(C4CCOC4)CC3)cc2CCN1C[C@H](O)CN1CCc2ccccc2C1 (stereo partly drawn) [Example 127, 2-[(2R)-3-(3,4-dihydro-1H-isoquinolin-2-yl)-2-hydroxy-propyl]-6-(4-tetrahydrofuran-3-ylpiperazin-1-yl)-3,4-dihydroisoquinolin-1-one]	1 to 100
CC(=O)N1CCN(c2cc(F)c3c(c2)CCN(C[C@H](O)CN2CCc4ccccc4C2)C3=O)CC1 [Example 128, 6-(4-acetylpiperazin-1-yl)-2-[(2R)-3-(3,4-dihydro-1H-isoquinolin-2-yl)-2-hydroxy-propyl]-8-fluoro-3,4-dihydroisoquinolin-1-one]	100 to 1000
CC(=O)N1CCN(c2ccc3c(c2)CCN(C(C)C(O)CN2CCc4ccccc4C2)C3=O)CC1 (stereo not drawn) [Example 129, 6-(4-acetylpiperazin-1-yl)-2-[3-(3,4-dihydro-1H-isoquinolin-2-yl)-2-hydroxy-1-methyl-propyl]-3,4-dihydroisoquinolin-1-one]	100 to 1000
CC1(C)CN(C[C@H](O)CN2CCc3ccccc3C2)C(=O)c2ccc(N3CCN(C=O)CC3)cc21 [Example 130, 4-[2-[(2R)-3-(3,4-dihydro-1H-isoquinolin-2-yl)-2-hydroxy-propyl]-4,4-dimethyl-1-oxo-3H-isoquinolin-6-yl]piperazine-1-carbaldehyde; hydrochloride]	1000 to 10000
CCN1CCC(Oc2ccc3c(c2)C(C)(C)CN(C[C@H](O)CN2CCc4ccccc4C2)C3=O)CC1 [Example 131, 2-[(2R)-3-(3,4-dihydro-1H-isoquinolin-2-yl)-2-hydroxy-propyl]-6-[(1-ethyl-4-piperidyl)oxy]-4,4-dimethyl-3H-isoquinolin-1-one]	1 to 100
O=C1c2ccc(N3CCOCC3)cc2C(F)(F)CN1C[C@H](O)CN1CCc2ccccc2C1 [Example 132, 2-[(2R)-3-(3,4-dihydro-1H-isoquinolin-2-yl)-2-hydroxy-propyl]-4,4-difluoro-6-morpholino-3H-isoquinolin-1-one]	1000 to 10000
CN1CCC(Oc2ccc3c(c2)CCN(C[C@H](O)CN2CCc4ccccc4C2)C3=O)C1 (stereo partly drawn) [Example 133, 2-[(2R)-3-(3,4-dihydro-1H-isoquinolin-2-yl)-2-hydroxy-propyl]-6-(1-methylpyrrolidin-3-yl)oxy-3,4-dihydroisoquinolin-1-one]	1 to 100
